Results taken from article PMC13502167, “Ampyrone is a direct agonist of human tyrosinase and a potential therapeutic for hypopigmentation disorders” (JCI Insight, 2026).
Changes are numbered by the printed parent chain. Like-named read-outs stand apart in the source and are kept apart here.

Tests used:
[1] = biological target: T1, human tyrosinase (hTYR^WT) (Homo sapiens, UniProt P14679); assay: biochemical
T1 construct: gene TYR
T1 sequence (P14679 19-469): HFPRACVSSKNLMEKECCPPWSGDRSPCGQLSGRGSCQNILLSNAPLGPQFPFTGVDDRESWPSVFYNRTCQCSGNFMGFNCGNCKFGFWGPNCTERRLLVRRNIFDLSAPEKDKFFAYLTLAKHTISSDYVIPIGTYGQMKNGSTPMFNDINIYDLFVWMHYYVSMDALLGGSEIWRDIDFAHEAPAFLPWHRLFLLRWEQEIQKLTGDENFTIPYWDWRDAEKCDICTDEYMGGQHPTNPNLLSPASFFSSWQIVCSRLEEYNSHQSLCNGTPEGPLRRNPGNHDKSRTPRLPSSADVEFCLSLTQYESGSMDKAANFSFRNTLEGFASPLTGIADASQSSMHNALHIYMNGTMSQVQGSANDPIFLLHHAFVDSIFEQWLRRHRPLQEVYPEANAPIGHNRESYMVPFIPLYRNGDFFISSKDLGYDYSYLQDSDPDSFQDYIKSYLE

[2] = biological target: T1, human tyrosinase (hTYR^WT); assay: activation of diphenol oxidase and monophenolase activity of purified enzyme; urea denaturation; type: biochemical
[3] = biological target: T2, human tyrosinase (hTYR^P406L) (Homo sapiens, UniProt P14679, P406L); assay: activation of diphenol oxidase and monophenolase activity of purified enzyme; type: biochemical
T2 construct: gene TYR; recombinant intramelanosomal domain, P406L variant, His-tag
T2 sequence (P14679 19-469 P406L): T1 sequence (P14679 19-469) with P388L

CN(C)c1ccc(N=NS(=O)(=O)O)cc1 [fenaminosulf]
IC50 ([1]; read-out: IC50): 8.12 µM

Nc1nc2nc[nH]c2c(=S)[nH]1 [6-thioguanine]
IC50 ([1]; read-out: IC50): 540 µM

O=c1cc(-c2ccc(O)c(O)c2)oc2ccccc12 [3’,4’-dihydroxyflavone]
IC50 ([1]; read-out: IC50): 9.22 µM

COc1ccc(-c2cc(=S)ss2)cc1 [anethole trithione]
IC50 ([1]; read-out: IC50): 1.45 µM

Oc1ccc(C2=Cc3ccc(O)cc3OC2)cc1 [idronoxil]
IC50 [1]: 29.1 µM

Oc1ccc(Nc2ccccc2)cc1 [4-anilinophenol]
IC50 ([1]; read-out: IC50): 3.2 µM

Cc1c(N)c(=O)n(-c2ccccc2)n1C [ampyrone, 4-Amino-2,3-dimethyl-1-phenyl-3-pyrazol-5-one]
EC50 [2]: 670 µM | EC50 [3]: 3570 µM
